Columns and labels:
Format in all cases: cell-based
[1] = test system: TCC97-7 bladder cancer tumour cells carrying the Ser249Cys mutation of FGF receptor 3; assay: Inhibition of serum-induced proliferation of TCC97-7 bladder cancer cells (count of Hoechst 33342-labelled nuclei after 3 days); details: TCC97-7 cells in presence of serum
Method: To do this, 2000 cells are seeded in the morning in 50 μl of complete medium (Ham-F/12, 1% FCS, 2 mM glutamine, non-essential amino acids, sodium pyruvate, 1% insulin/transferrin/selenium, hydrocortisone). In the evening, 50 μl of the various compounds are added at 0.02, 0.2, 2 or 20 μM after dilution in complete culture medium in order to obtain final concentrations of 0.01, 0.1, 1 and 10 μM. After 3 days, the cell proliferation is evaluated by measuring the number of nuclei at the bottom of each well corresponding to a number of cells. The nuclei are detected by means of labelling with Hoechst 33342 (Invitrogen, ref H3570). 100 μl of Hoechst 33342 diluted to 1/5000th in PBS are added to each well for 30 min at ambient temperature on non-fixed cells. The nuclei are detected by fluorescence at 350 nm at ×2 magnification with an Operetta (PerkinElmer) using the Acapella (PerkinElmer) imaging software and analysed using the Columbus (PerkinElmer) image analysis software. The percentage inhibition of the cell proliferation is calculated by considering the number of nuclei present in the wells in which the TCC97-7 cells are cultured in the absence of FGF-R antagonists to be 0% inhibition. 100% inhibition would correspond to a well no longer containing cells.

[2] = test system: TCC97-7 bladder cancer cells carrying the Ser249Cys mutation of FGF receptor 3; assay: Reduction of intracellular ATP content of TCC97-7 cells (Cell Titer-Glo, 3 days, serum-supplemented medium); details: TCC97-7 cells in presence of serum
Method: Evaluation of the Capacity of the FGF-R Antagonists to Reduce the ATP Content of TCC97-7 Bladder Cancer Cells Carrying the Ser249Cys Mutation of FGF Receptor 3, Cultured in a Serum-Supplemented Medium
To do this, 3000 cells are seeded in 50 μl of complete medium (Ham-F/12, 1% FCS, […], non-essential amino acids, sodium pyruvate, 1% insulin/transferrin/selenium, hydrocortisone). 16 hours later, 50 μl of the various compounds are added at 0.2, 2, 20 and 60 μM after dilution in complete culture medium in order to obtain final concentrations of 0.1, 1, 10 and 30 μM. After 3 days, the ATP content of the cells is measured using the Cell Titer-Glo® Luminescent Cell Viability Assay kit (Promega, France) according to the supplier's recommendations. The percentage inhibition of the amount of intracellular ATP is calculated by considering the ATP content of the cells cultured in the absence of antagonist to be 0% inhibition. 100% inhibition would correspond to a well in which the ATP content is zero.

[3] = test system: TCC97-7 bladder cancer tumour cells carrying the Ser249Cys mutation of FGF receptor 3; assay: Cytotoxic effect: percentage of permeabilized (very fluorescent, Hoechst 33342) TCC97-7 cells; details: 3 days
Method: In parallel to their antiproliferative capacity, the potential cytotoxic effect of the FGF-R antagonists is measured by means of quantifying the number of cells of which the membranes are permeabilized. The appearance of pores in the plasma membrane of the cells corresponds to a state of cell death which enables the Hoechst 33342 to penetrate more easily into the cell. This is reflected by a very strong increase in the amount of fluorescence detected in the nuclei. The percentage of cells in a state of cell death is calculated by the ratio between the number of very fluorescent nuclei to the total number of nuclei, multiplied by 100. The observations are carried out in the same way as the quantification of the nuclei for the cell proliferation.

Row | Compound | Inhibition of proliferation (%) ([1]; 0.01 μM) | Inhibition of proliferation (%) ([1]; 0.1 μM) | Inhibition of proliferation (%) ([1]; 1 μM) | Inhibition of proliferation (%) ([1]; 10 μM) | Inhibition of the amount of intracellular ATP (%) ([2]; 0.1 μM) | Inhibition of the amount of intracellular ATP (%) ([2]; 1 μM) | Inhibition of the amount of intracellular ATP (%) ([2]; 10 μM) | Cytotoxicity (% of permeable cells) ([3]; 0.01 μM) | Cytotoxicity (% of permeable cells) ([3]; 0.1 μM) | Cytotoxicity (% of permeable cells) ([3]; 1 μM) | Cytotoxicity (% of permeable cells) ([3]; 10 μM) | Inhibition of the amount of intracellular ATP (%) ([2]; 30 μM)
1 | CCCn1c(=O)n(Cc2ccc(C)s2)c(=O)c2cc(C(=O)c3nc(-c4cccc(C(=O)[O-])c4)c4ccccn34)ccc21.[Na+] [compound 224] | 3% | 0% | 27% | 82% | −1% | 20% | 83% | 3% | 3% | 4% | 9% | 
2 | Cn1c(=O)n(Cc2cccc(F)c2)c(=O)c2cc(C(=O)c3nc(-c4cccc(C(N)=O)c4)c4ccccn34)ccc21 [compound 108] | −4% | −5% | 6% | 22% |  |  |  | 4% | 5% | 4% | 4% | 
3 | CCCn1c(=O)n(Cc2ccc(F)cc2)c(=O)c2cc(C(=O)c3nc(-c4cnc(N(C)C)nc4)c4ccccn34)ccc21 [compound 232] | −6% | 1% | 20% | 79% | 7% | 8% | 45% | 3% | 3% | 4% | 23% | 
4 | Cn1c(=O)n(Cc2ccc(F)cc2)c(=O)c2cc(C(=O)c3ncc4ccccn34)ccc21 [compound 226] | 3% | 8% | 28% | 73% | −1% | 5% | 41% | 5% | 6% | 10% | 25% | 
5 | Cc1nnc(-c2cccc(-c3nc(C(=O)c4ccc5c(c4)c(=O)n(Cc4ccc(F)cc4)c(=O)n5C)n4ccccc34)c2)o1 [compound 140] | 0% | −1% | −7% | 26% |  |  |  | 1% | 1% | 1% | 2% | 
6 | CCOC(=O)c1cccc(-c2nc(C(=O)c3ccc4c(c3)c(=O)n(Cc3ccc(F)cc3)c(=O)n4C)n3ccccc23)c1 [compound 79] | 5% | 0% | 17% | 71% | −6% | 7% | 72% | 1% | 1% | 2% | 10% | 
7 | Cc1ccc(Cn2c(=O)c3cc(C(=O)c4nc(-c5cccnc5)c5ccccn45)ccc3n(C)c2=O)s1 [compound 220] | 4% | 3% | 13% | 49% | 6% | 10% | 16% | 6% | 5% | 5% | 11% | 60%
8 | COCn1c(=O)n(Cc2ccc(F)cc2)c(=O)c2cc(C(=O)c3nc(-c4cccc(C(=O)[O-])c4)c4ccccn34)ccc21.[Na+] [compound 71] | 0% | 1% | 14% | 85% | −4% | −1% | 94% | 4% | 4% | 5% | 1% | 
9 | CCCn1c(=O)n(CCOc2ccc(F)cc2)c(=O)c2cc(C(=O)c3nc(-c4cccc(C(=O)[O-])c4)c4ccccn34)ccc21.[Na+] [compound 221, Sodium salt of 3-[3-({3-[2-(4-fluorophenoxy)ethyl]-1-propyl-2,4-dioxo-1,2,3,4-tetrahydroquinazolin-6-yl}carbonyl)imidazo[1,5-a]pyridin-1-yl]benzoic acid] | 5% | 27% | 80% | 85% | −2% | 7% | 73% | 4% | 5% | 6% | 7% | 
10 | Cc1ccc(Cn2c(=O)c3cc(C(=O)c4nc(-c5cccc(C(=O)[O-])c5)c5ccccn45)ccc3n(C)c2=O)s1.[Na+] [compound 291] | 1% | 5% | 40% | 81% | 8% | 27% | 71% | 2% | 2% | 2% | 4% | 
11 | CCCn1c(=O)n(CCCC(C)C)c(=O)c2cc(C(=O)c3nc(-c4cccc(C(=O)[O-])c4)c4ccccn34)ccc21.[Na+] [compound 207] | 2% | 7% | 45% | 82% | 10% | 23% | 62% | 5% | 4% | 5% | 23% | 
12 | Cn1c(=O)n(Cc2ccc(F)cc2)c(=O)c2cc(C(=O)c3nc(-c4cccc(C(=O)[O-])c4)c4ccccn34)ccc21.[Na+] [compound 49, Sodium salt of 3-(3-{[3-(4-fluorobenzyl)-1-methyl-2,4-dioxo-1,2,3,4-tetrahydroquinazolin-6-yl]carbonyl}imidazo[1,5-a]pyridin-1-yl)benzoic acid] |  | 9% | 55% | 81% | −2% | 14% | 67% | 5% | 5% | 6% | 12% | 
